Some results are limits rather than exact numbers.

The subject of one series is SDMA. Nature of the series: Immunoblot of SDMA (PRMT5-dependent mark). It is filed as cell-based. Particulars: 96 h, HCT116 MTAP−/− cells. A general note: A western blot detects proteins with antibodies after separation by electrophoresis.
The target of the next series is PDE4D2 (Homo sapiens, UniProt Q08499). Kind of series: Mini-profiling panel, non-kinase enzyme. In kind it is biochemical. Particulars: Non-Kinase Enzymes; read-out: PDE4D2 Inhibitor IC50.
Series [1] concerns HCT116 MTAP−/− subcutaneous xenograft. Kind of series: Xenograft efficacy study, monotherapy. It is filed as in vivo, mice. As for the experimental part:
An efficacy study in an HCT116 MTAP ^−/− subcutaneous xenograft mouse model was performed to evaluate the antitumor effect of SCR‐7952, with once daily (q.d.) oral dosing of 0.25, 0.5, 1.0, or 3.0 mg/kg, respectively.
Nu/Nu female mice (6–12 weeks old; Beijing Vital River Laboratory Animal Technology Co., Ltd.) were used for in vivo xenograft studies. All experimental procedures involving animals and their care were in accordance with the State Council Regulations for Laboratory Animal Management (Enacted in 1988) and approved by the Institutional Animal Care and Use Committee of Jiangsu Simcere Pharmaceutical Co., Ltd. (IACUC; Approval No. AP‐056).
Subcutaneous injections of HCT116 MTAP ^−/− cells were performed (5 × 10^6 cells in 100 µL) into Nu/Nu female mice. Mice were observed daily for the development of tumors. Six days after tumor implantation, mice were randomly distributed into different groups. SCR‐7952, AG‐270, JNJ‐64619178, or vehicle (water with 5% N‐methylpyrrolidone and 10% solutol HS‐15) were daily administrated by oral gavage. Tumor volumes and body weights were recorded three times per week. Tumor volumes were measured in two dimensions using a caliper, and the volume was expressed in mm^3 using the formula: V = (L × W × W)/2, where V is tumor volume, L is tumor length (the longest tumor dimension), and W is tumor width (perpendicular to L). The tumor growth inhibition rate (TGI%) of each dosing group was calculated according to the following formula: %TGI = (1 − (V t(treatment group) − V 0(treatment group))/(V t(vehicle group) − V 0(vehicle group))) × 100%, where V t is average tumor volume of a dosing group on a specific day, V 0 is average tumor volume of a dosing group on the initial day. At the end of the study, plasma and tumor tissues were collected and stored at −80°C for further measurement.

For the next series, the target named is LCK (Homo sapiens, UniProt P06239). Nature of the series: Mini-profiling panel, kinase. The conditions noted are these: Kinases; read-out: LCK Inhibitor IC50. It is filed as biochemical.
The next series addresses COX1 (Homo sapiens, UniProt P23219). Nature of the series: Mini-profiling panel, non-kinase enzyme. It is filed as biochemical. The conditions noted are these: Non-Kinase Enzymes; read-out: COX1 Inhibitor IC50.
A short description of series [2]: Plasma pharmacokinetics after multiple administration in xenograft mice. In kind it is in vivo. The conditions noted are these: SCR-7952 1.0 mg/kg.

Sequence of PDE4D2 (Q08499 303-809 limits assumed): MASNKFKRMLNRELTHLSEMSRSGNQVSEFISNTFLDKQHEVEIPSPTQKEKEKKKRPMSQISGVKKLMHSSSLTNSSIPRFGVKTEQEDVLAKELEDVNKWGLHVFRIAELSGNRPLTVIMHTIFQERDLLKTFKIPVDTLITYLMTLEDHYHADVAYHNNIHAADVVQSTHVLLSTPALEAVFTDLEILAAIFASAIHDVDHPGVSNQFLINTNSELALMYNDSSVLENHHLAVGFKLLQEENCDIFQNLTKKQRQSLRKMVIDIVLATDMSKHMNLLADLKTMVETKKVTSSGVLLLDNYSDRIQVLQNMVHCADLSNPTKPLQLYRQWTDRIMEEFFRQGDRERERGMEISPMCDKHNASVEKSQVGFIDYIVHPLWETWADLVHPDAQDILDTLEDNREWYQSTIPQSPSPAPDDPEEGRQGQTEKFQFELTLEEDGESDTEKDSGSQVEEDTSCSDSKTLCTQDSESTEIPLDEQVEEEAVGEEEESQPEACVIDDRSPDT
Sequence of COX1 (P23219 24-599): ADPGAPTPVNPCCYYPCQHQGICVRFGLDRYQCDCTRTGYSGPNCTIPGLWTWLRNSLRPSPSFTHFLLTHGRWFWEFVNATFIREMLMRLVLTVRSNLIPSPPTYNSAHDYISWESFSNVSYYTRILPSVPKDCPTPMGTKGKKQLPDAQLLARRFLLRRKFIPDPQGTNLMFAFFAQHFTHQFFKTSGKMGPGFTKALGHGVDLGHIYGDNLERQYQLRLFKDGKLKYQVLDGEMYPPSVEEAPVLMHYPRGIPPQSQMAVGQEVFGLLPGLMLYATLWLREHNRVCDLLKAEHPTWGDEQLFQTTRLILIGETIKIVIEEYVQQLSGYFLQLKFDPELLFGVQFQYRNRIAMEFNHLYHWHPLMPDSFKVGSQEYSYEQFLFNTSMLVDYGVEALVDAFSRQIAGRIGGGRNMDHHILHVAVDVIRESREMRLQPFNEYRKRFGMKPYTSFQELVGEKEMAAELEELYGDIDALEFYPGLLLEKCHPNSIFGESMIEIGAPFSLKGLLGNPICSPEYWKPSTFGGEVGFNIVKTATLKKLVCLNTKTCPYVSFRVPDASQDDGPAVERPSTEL
Sequence of LCK (P06239 whole entry, species assumed): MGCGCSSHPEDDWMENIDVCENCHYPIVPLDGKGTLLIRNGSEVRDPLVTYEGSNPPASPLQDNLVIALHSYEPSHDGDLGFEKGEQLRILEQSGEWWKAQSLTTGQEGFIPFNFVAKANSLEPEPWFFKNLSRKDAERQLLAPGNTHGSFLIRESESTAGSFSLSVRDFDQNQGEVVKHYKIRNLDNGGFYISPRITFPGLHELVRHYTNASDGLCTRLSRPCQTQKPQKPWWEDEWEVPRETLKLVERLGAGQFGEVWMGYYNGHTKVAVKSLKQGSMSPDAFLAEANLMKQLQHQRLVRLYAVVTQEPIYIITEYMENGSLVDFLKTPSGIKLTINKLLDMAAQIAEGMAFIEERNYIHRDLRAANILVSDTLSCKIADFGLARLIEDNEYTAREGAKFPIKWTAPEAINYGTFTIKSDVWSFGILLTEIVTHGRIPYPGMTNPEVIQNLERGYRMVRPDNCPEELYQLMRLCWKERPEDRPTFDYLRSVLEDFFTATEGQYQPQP

The term IC50 denotes the concentration needed to halve the response being measured. A word on the TGI: it is the reduction of tumour growth relative to the control group. For the compound `Cn1cnc2c(=O)n(-c3cccnc3C3CC3)c3cc(Cl)ccc3c21` [SCR‐7952, 7‐chloro‐5‐(2‐cyclopropylpyridin‐3‐yl)‐1‐methyl‐1,5‐dihydro‐4H‐imidazo[4,5‐c]quinolin‐4‐one], the “SDMA level (immunoblot)” value with SDMA was “Significant dose‐dependent reduction”. In addition, the 50% inhibitory concentration (IC50) on PDE4D2, on LCK and on COX1 was greater than 10 µM each time. Also, the tumour growth inhibition (TGI) in series [1] (SCR-7952 0.5 mg/kg oral q.d.) was 60.0%; in series [1] (SCR-7952 1 mg/kg oral q.d.) it was 62.7%; in series [1] (SCR-7952 3.0 mg/kg oral q.d.), 82.9%. In addition, the AUC(0-t) in series [2] (Nu/Nu, mouse, oral, plasma, HCT116 MTAP−/− xenograft mice, read-out: AUC0-24h total) amounted to 15800 ng·h/mL. For the same compound, the AUC0-24h free drug in series [2] (calculated) was 1442 ng·h/mL.

The record behind these values is PMC11413503, “SCR‐7952, a highly selective MAT2A inhibitor, demonstrates synergistic antitumor activities in combination with the S‐adenosylmethionine‐competitive or the methylthioadenosine‐cooperative protein arginine methyltransferase 5 inhibitors in methylthioadenosine phosphorylase‐deleted tumors” (MedComm, 2024).
